Experiments:
pre-miR-21 = assay: In vitro cleavage of dually labeled pre-miR-21 with RNase L; format: biochemical; settings: incubated with RNase L
mature and pre-miR-21 = assay: RT-qPCR in RNase L-Targeting sgRNA (knock-down) MDA-MB-231 cells; format: cell-based; settings: RNase L knocked down by CRISPR
Description: (§1) Two CRISPR-modified MDA-MB-231 cell lines with either a scrambled control guide RNA (“Control sgRNA”; RNase L is expressed) or with an RNase L-targeting guide RNA (“RNase L-Targeting sgRNA”; RNase L protein abundance is knocked down) were used to complete these studies.
Generation of the RNase L Knockdown MDA-MB-231 Cell Line. RNase L knockdown and control MDA-MB-231 cell lines were generated by CRISPR as previously described.^1 Briefly, lentiviral constructs containing Cas9 and gRNAs against RNASEL or a negative control were purchased from Transomic Technologies, Inc. [catalog #TEVH-1249025-pCLIP-ALL-hCMVPuro (KD+) and TELA1015 (KD−)] and packaged by transfecting HEK293T cells (ATCC, catalog #CRL-11268) using Lipofectamine 2000 transfection reagent (Invitrogen; catalog #11668500) and Cellecta packaging mix (Cellecta, catalog #CPCP-K2A) in Opti-MEM (Gibco, catalog #31985070). Virus supernatants were harvested 72 h post-transfection and filtered through a 0.45 μm PES filter (mdi Membrane Technologies Inc., catalog #SYPL0602MNXX204). […]
RNA Isolation and Quantitative Real-Time Polymerase Chain Reaction (RT-qPCR). […] RT-qPCR was performed on a QuantStudio5™ Real-Time PCR Instrument (Applied Biosystems) using Power SYBR Green Master Mix (Applied Biosystems), and the resulting data were analyzed using the ΔΔCt method.

miR-21 = assay: Global miRNA profiling in MDA-MB-231 cells; format: cell-based; settings: 377 miRNAs
Protocol: as §1
For global miRNA profiling experiments, RT was completed using 2 μg total RNA and a Mir-X miRNA First Strand Synthesis Kit (Takara) in a total volume of 20 μL. The RT reaction was then plated into the wells of a 384-well qPCR plate containing pre-diluted forward and reverse primers for the miRNA of interest. RT-qPCR was performed on a QuantStudio5™ Real-Time PCR Instrument (Applied Biosystems) using Power SYBR Green Master Mix (Applied Biosystems). Data were analyzed using the ΔΔCt method,^11 followed by calculation of log 2 fold changes and −log 10 p-values. The software Perseus was used to calculate the false discovery rate (FDR) of 1% with a group variance of S0(0.1).

[1] = test system: phosphorylation of extracellular signal-regulated kinase (ERK); assay: Western blot of pERK versus ERK (RTK signaling); format: cell-based; settings: CRISPR-Control sgRNA MDA-MB-231 cells
Protocol: Quantification of Protein Levels by Western Blotting. MDA-MB-231 cells were treated as described in “Cell Culture.” After treatment, the medium was removed, and the cells were washed with 1× Dulbecco's phosphate-buffered saline (DPBS). Total protein was extracted using Mammalian Protein Extraction Reagent (M-PER, Thermo Scientific) according to the manufacturer's protocol. Protein concentration was measured using a Pierce Micro BCA Protein Assay kit (Fisher Scientific). Approximately 20 μg total protein was loaded onto a Tris-glycine gel with a 5% polyacrylamide stacking layer and a 10% polyacrylamide resolving layer. The gel was run at 140 V for ˜1.5 h in 1× Running Buffer (25 mM Tris base, pH 8.3, 190 mM glycine, and 0.1% (w/v) SDS). After electrophoresis, the protein was transferred to a PVDF membrane using 1× Transfer Buffer (25 mM Tris base, pH 8.3, 190 mM glycine, and 20% (v/v) methanol). The membrane was then washed with 1×TBST (Tris-buffered saline with 0.1% (v/v) Tween 20) and blocked in a solution of 5% (w/v) milk in 1×TBST for 30 min with shaking at room temperature. The membrane was then incubated overnight at 4° C. in a solution of primary antibody diluted in 1×TBST containing 5% (w/v) milk. […]

CNC(=O)[C@H](c1ccccc1)N(C)Cc1ccc(-c2cccc(-c3sccc3NC(=O)CCOCCOCCOCCC(=O)NCCN3CCN(c4ccc5nc(-c6c(N)c7c(F)cccc7[nH]c6=O)[nH]c5c4)CC3)c2)cc1 [RiboTAC 7, (S)—N-(2-(4-(2-(4-amino-5-fluoro-2-oxo-1,2-dihydroquinolin-3-yl)-1H-benzo[d]imidazol-6-yl)piperazin-1-yl)ethyl)-3-(2-(2-(3-((2-(4′-((methyl(2-(methylamino)-2-oxo-1-phenylethyl)amino)methyl)-[1,1′-biphenyl]-3-yl)thiophen-3-yl)amino)-3-oxopropoxy)ethoxy)ethoxy)propanamide]
cleavage of pre-miR-21 construct labeled with 6-FAM and BHQ (pre-miR-21): induced dose-dependent cleavage of pre-miR-21 | effect on mature and pre-miR-21 levels (mature and pre-miR-21): inactive | miRNA profiling selectivity (miR-21): selectively down-regulated miR-21 across the transcriptome | effect on the levels of ERK or pERK [1]: no effect

From patent publication US20260167614A1, “IDENTIFICATION OF SMALL MOLECULES THAT RECRUIT AND ACTIVATE RNASE L” (UNIVERSITY OF FLORIDA RESEARCH FOUNDATION, INCORPORATED, priority 2022, published 2026)
